Results: PubChem BioAssay AID248 (DTP/NCI, 2004)
Where “and” joins values, the source holds several entries; their conditions need not be identical. Identical values can stand only once. Inconclusive results and toxic doses are left out. No stated cut-off is given here; in the data, active means T/C of 150% or more; inactive means T/C below 125%.

System: L1210 leukemia ip in BDF1 mice, survival T/C
Assay: NCI In Vivo Anticancer Drug Screen. Data for tumor model L1210 Leukemia (intraperitoneal) in B6D2F1 (BDF1) mice
Conditions: endpoint: mean survival time, higher = longer survival
Procedure, shortened: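 Survival endpoint. Drug-treated group vs vehicle group, expressed as T divided by C. Tumor passaged by transplantation.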

[1] = dose: 100.0 mg/kg/injection, schedule: Q01DX001 (ip), vehicle: Klucel (hydroxypropylcellulose) (HPC)
[2] = dose: 200.0 mg/kg/injection, schedule: Q01DX001 (ip), vehicle: Klucel (hydroxypropylcellulose) (HPC)
[3] = dose: 400.0 mg/kg/injection, schedule: Q01DX001 (ip), vehicle: Klucel (hydroxypropylcellulose) (HPC)
[4] = dose: 100.0 mg/kg/injection, schedule: Q04DX003 (ip), vehicle: Klucel (hydroxypropylcellulose) (HPC)
[5] = dose: 200.0 mg/kg/injection, schedule: Q04DX003 (ip), vehicle: Klucel (hydroxypropylcellulose) (HPC)
[6] = dose: 400.0 mg/kg/injection, schedule: Q04DX003 (ip), vehicle: Klucel (hydroxypropylcellulose) (HPC)
[7] = dose: 100.0 mg/kg/injection, schedule: Q04DX003 (ip), vehicle: saline
[8] = dose: 200.0 mg/kg/injection, schedule: Q04DX003 (ip), vehicle: saline
[9] = dose: 100.0 mg/kg/injection, schedule: Q01DX009 (ip), vehicle: saline
[10] = dose: 200.0 mg/kg/injection, schedule: Q01DX009 (ip), vehicle: saline
[11] = dose: 400.0 mg/kg/injection, schedule: Q01DX009 (ip), vehicle: saline
[12] = dose: 400.0 mg/kg/injection, schedule: Q04DX003 (ip), vehicle: saline
[13] = dose: 100.0 mg/kg/injection, schedule: Q01DX001 (ip), vehicle: saline
[14] = dose: 200.0 mg/kg/injection, schedule: Q01DX001 (ip), vehicle: saline
[15] = dose: 400.0 mg/kg/injection, schedule: Q04DX002 (ip), vehicle: saline with Tween-80
[16] = dose: 100.0 mg/kg/injection, schedule: Q04DX002 (ip), vehicle: saline with Tween-80
[17] = dose: 200.0 mg/kg/injection, schedule: Q04DX002 (ip), vehicle: saline with Tween-80

Measured: T/C

Nc1nc2ncc(CNc3ccc(C(=O)NC(CCC(=O)O)C(=O)O)cc3)nc2c(=O)n1N (stereo not drawn)
inactive: [1] 98 % of control | [2] 101 % of control | [3] 98 % of control

c1ccc(CN=C(c2ccccc2)c2ccccc2)cc1
inactive: dose: 100.0 mg/kg/injection, schedule: Q01DX009 (ip), vehicle: Klucel (hydroxypropylcellulose) (HPC) 101 % of control | [4] 104 % of control | dose: 200.0 mg/kg/injection, schedule: Q01DX009 (ip), vehicle: Klucel (hydroxypropylcellulose) (HPC) 95 % of control | [5] 96 % of control | dose: 400.0 mg/kg/injection, schedule: Q01DX009 (ip), vehicle: Klucel (hydroxypropylcellulose) (HPC) 106 % of control | [6] 98 % of control

Cc1ccc(C(=O)CCN2CCOCC2)cc1C
inactive: [7] 93 % of control | [8] 91 % of control

CCC(=O)c1ccc2ccccc2c1
inactive: [4] 100 % of control | [5] 104 % of control | [6] 100 % of control

ClCCN(CC1C(c2ccccc2)C1c1ccccc1)C1CCCCC1 (stereo not drawn)
inactive: dose: 1.5 mg/kg/injection, schedule: Q04DX002 (ip), vehicle: Klucel (hydroxypropylcellulose) (HPC) 104 % of control | dose: 3.1 mg/kg/injection, schedule: Q04DX002 (ip), vehicle: Klucel (hydroxypropylcellulose) (HPC) 92 % of control | dose: 6.25 mg/kg/injection, schedule: Q04DX002 (ip), vehicle: Klucel (hydroxypropylcellulose) (HPC) 92 % of control

CN(C)C(=O)c1cccc(N)c1
inactive: [9] 101 % of control | [7] 103 % of control | [10] 98 % of control | [8] 100 % of control | [11] 90 % of control | [12] 102 % of control

CC(=O)c1c(OC(C)C(=O)O)ccc2ccccc12 (stereo not drawn)
inactive: [13] 98 % of control | [14] 101 % of control | dose: 400.0 mg/kg/injection, schedule: Q01DX001 (ip), vehicle: saline 107 % of control

Cc1ccc(C)c(NC(=O)N2CCN(C)CC2)c1
inactive: [9] 97 % of control | [10] 100 % of control

CCOC(=O)NCNC(=O)OCC
inactive: dose: 100.0 mg/kg/injection, schedule: Q01DX009 (ip), vehicle: saline sonified 104 % of control | dose: 100.0 mg/kg/injection, schedule: Q04DX003 (ip), vehicle: saline sonified 100 % of control | dose: 200.0 mg/kg/injection, schedule: Q01DX009 (ip), vehicle: saline sonified 95 % of control | dose: 200.0 mg/kg/injection, schedule: Q04DX003 (ip), vehicle: saline sonified 97 % of control | dose: 400.0 mg/kg/injection, schedule: Q01DX009 (ip), vehicle: saline sonified 91 % of control | dose: 400.0 mg/kg/injection, schedule: Q04DX003 (ip), vehicle: saline sonified 94 % of control

OCC(O)COc1cccc2cccnc12 (stereo not drawn)
inactive: [7] 110 % of control | [8] 101 % of control | [12] 103 % of control

C=COC(=O)NC(CCSC)C(=O)O (stereo not drawn)
inactive: dose: 50.0 mg/kg/injection, schedule: Q01DX001 (ip), vehicle: saline 101 % of control | [13] 98 % of control

CC(=O)/C(C)=N\NC(=O)c1ccccn1
inactive: dose: 25.0 mg/kg/injection, schedule: Q01DX015 (ip), vehicle: water 119 % of control | dose: 50.0 mg/kg/injection, schedule: Q01DX001 (ip), vehicle: water 108 % of control | dose: 50.0 mg/kg/injection, schedule: Q01DX015 (ip), vehicle: water 108 % of control | dose: 100.0 mg/kg/injection, schedule: Q01DX001 (ip), vehicle: water 121 % of control | dose: 100.0 mg/kg/injection, schedule: Q01DX015 (ip), vehicle: water 119 % of control | dose: 200.0 mg/kg/injection, schedule: Q01DX001 (ip), vehicle: water 108 % of control

CN(C=O)c1cccc(C(=O)O)c1
inactive: [1] 96 % of control | [4] 103 % of control | [2] 94 % of control | [5] 103 % of control | [3] 91 % of control | [6] 97 % of control

CC(=O)Nc1c(C)cc(Cl)cc1Cl
inactive: dose: 25.6 mg/kg/injection, schedule: Q04DX002 (ip), vehicle: saline with Tween-80 95 % of control | dose: 64.0 mg/kg/injection, schedule: Q04DX002 (ip), vehicle: saline with Tween-80 95 % of control | dose: 100.0 mg/kg/injection, schedule: Q01DX009 (ip), vehicle: saline with Tween-80 91 % of control | dose: 100.0 mg/kg/injection, schedule: Q04DX003 (ip), vehicle: saline with Tween-80 91 % of control | dose: 160.0 mg/kg/injection, schedule: Q04DX002 (ip), vehicle: saline with Tween-80 95 % of control | dose: 200.0 mg/kg/injection, schedule: Q01DX009 (ip), vehicle: saline with Tween-80 89 % of control | dose: 200.0 mg/kg/injection, schedule: Q04DX003 (ip), vehicle: saline with Tween-80 95 % of control | dose: 400.0 mg/kg/injection, schedule: Q01DX009 (ip), vehicle: saline with Tween-80 96 % of control | [15] 98 % of control | dose: 400.0 mg/kg/injection, schedule: Q04DX003 (ip), vehicle: saline with Tween-80 98 % of control

CCCCNC(=O)c1ccccc1N
inactive: dose: 50.0 mg/kg/injection, schedule: Q04DX003 (ip), vehicle: other 103 % of control | dose: 100.0 mg/kg/injection, schedule: Q04DX003 (ip), vehicle: other 95 % of control and 101 % of control | dose: 200.0 mg/kg/injection, schedule: Q04DX003 (ip), vehicle: other 92 % of control | dose: 400.0 mg/kg/injection, schedule: Q04DX003 (ip), vehicle: other 90 % of control

Cc1c(O)c2ccc(Cl)cc2n(C)c1=O
inactive: [16] 100 % of control | [17] 94 % of control | [15] 103 % of control

O=C(Nc1ccc(Cl)cc1Cl)Nc1cc(C(F)(F)F)ccc1Cl
inactive: [9] 98 % of control | [10] 95 % of control | [11] 92 % of control

CC(=O)Nc1nc(C(=O)O)c(CCCCc2ccccc2)c(=O)[nH]1
inactive: [1] 95 % of control | [2] 98 % of control | [3] 101 % of control

C/C=C/C[P+](c1ccccc1)(c1ccccc1)c1cccc2ccccc12
inactive: dose: 25.0 mg/kg/injection, schedule: Q04DX002 (ip), vehicle: saline with Tween-80 94 % of control

O=S(=O)(O)c1cc(O)c2cc(Nc3ccccc3)ccc2c1
inactive: dose: 50.0 mg/kg/injection, schedule: Q01DX009 (ip), vehicle: saline 96 % of control | [9] 93 % of control | [7] 89 % of control | [10] 102 % of control | [8] 100 % of control

O=C(O)c1ccc(CC2CCCC2)cc1
inactive: [1] 96 % of control | [4] 93 % of control | [2] 103 % of control | [5] 93 % of control | [3] 97 % of control | [6] 98 % of control

c1ccc2c(c1)CCCc1cn[nH]c1-2
inactive: [13] 98 % of control | [14] 95 % of control

CCOC(=O)c1ccc(Nc2sc(C(=O)c3ccc(-c4ccccc4)cc3)c(N)c2C#N)cc1
inactive: [16] 92 % of control | [17] 86 % of control | [15] 95 % of control

O=c1[nH]ncc2ccc([N+](=O)[O-])cc12
inactive: dose: 75.0 mg/kg/injection, schedule: Q01DX001 (ip), vehicle: other 103 % of control | dose: 150.0 mg/kg/injection, schedule: Q01DX001 (ip), vehicle: other 101 % of control
